# Data taken from patent publication US20260216156A1, “METHODS AND COMPOSITIONS FOR THE TREATMENT OF HEARING DISORDERS” (Gateway Biotechnology, Inc., priority 2023, published 2026).
# Read-outs that look alike come from different tables or passages of the source.
# Columns and labels:
# [1] = cited from earlier work
# [2] = system: mice suffering from noise induced tinnitus; assay: Sound-based avoidance detection (SBAD), No-Go trials; type: in vivo; conditions: for No-Go trial correct rate: tinnitus mice
# Experimental: Using a shuttle box divided into two compartments, mice were trained to cross from side to side with sound cues in the “Go” trials and remain still in the absence of sound in the “No-Go” trials for 15 days. […] The sound cues were randomly played as white noise or narrow-band noise at 5, 10, 16, 20, and 32 kHz with sound intensities randomly at 75, 80, or 85 dB. […] Additionally, a hurdle was added on training 11 to reinforce the training. After the 15th training day, mice were tested for 3 days to obtain a baseline score to be compared after noise exposure, as well as retraining for 3 days. Following the successful completion of training so that mice reached a high percentage of success in the trials, the mice were exposed to a noise-induced trauma for tinnitus. To ensure that the mice still have their hearing, one ear was protected with an ear plug, while the other ear was exposed to the noise. The mice were placed in a sound booth where they were exposed to 120 dB broadband noise at 4-25 kHz for 2-4 hours. Following the noise exposure, the mice were housed for one month, and then tested to see if they have developed tinnitus. In these testing periods, the mice were tested for three days in the shuttle boxes, where they underwent the Go and No-Go trials, however in the No-Go trials the mice were not shocked, as it is expected that mice with tinnitus would cross compartments in the absence of a sound cue. The mice were continued to be shocked in the Go trials in order to ensure that they have retained their hearing and can hear the sound cues. […] To insure there is a significant difference in the No-Go trial scores, chi-square tests were completed comparing the post-noise exposure tests to the baseline tests. However, if tinnitus is not present in the mice, tests were done after waiting one more month, and another if needed. Mice received dosages of NMDP initially via intraperitoneal injection (i.p.). The Go and No-Go scores for the tests were compared using chi-square tests in Social Science Statistics. […] Following this conclusion, the mice were tested accordingly to determine if their No-Go scores could be improved by different drug doses and combinations.
# [3] = cited from earlier work; for Bioavailability outside of the central nervous system: humans
# [4] = Microemulsion formulation: NMDP solubility and droplet size; type: physicochemical; conditions: aqueous with cosolvent or surfactant or cyclodextrin, 8% Labrafil M 1944CS, 30% Cremophor RH 40/ethanol (3:1) and water
# [5] = Pharmacokinetics after intranasal administration, blood samples, NMDP by HPLC; type: in vivo
# [6] = Ciliotoxicity of microemulsion formulation; conditions: microemulsion: 8% Labrafil M 1944CS, 30% Cremophor RH 40/ethanol (3:1) and water
# [7] = system: mice suffering from noise induced tinnitus; assay: Sound-based avoidance detection (SBAD), Go trials; type: in vivo
# Experimental: Using a shuttle box divided into two compartments, mice were trained to cross from side to side with sound cues in the “Go” trials and remain still in the absence of sound in the “No-Go” trials for 15 days. […] The sound cues were randomly played as white noise or narrow-band noise at 5, 10, 16, 20, and 32 kHz with sound intensities randomly at 75, 80, or 85 dB. […] Additionally, a hurdle was added on training 11 to reinforce the training. After the 15th training day, mice were tested for 3 days to obtain a baseline score to be compared after noise exposure, as well as retraining for 3 days. Following the successful completion of training so that mice reached a high percentage of success in the trials, the mice were exposed to a noise-induced trauma for tinnitus. To ensure that the mice still have their hearing, one ear was protected with an ear plug, while the other ear was exposed to the noise. The mice were placed in a sound booth where they were exposed to 120 dB broadband noise at 4-25 kHz for 2-4 hours. Following the noise exposure, the mice were housed for one month, and then tested to see if they have developed tinnitus. In these testing periods, the mice were tested for three days in the shuttle boxes, where they underwent the Go and No-Go trials, however in the No-Go trials the mice were not shocked, as it is expected that mice with tinnitus would cross compartments in the absence of a sound cue. The mice were continued to be shocked in the Go trials in order to ensure that they have retained their hearing and can hear the sound cues. […] To insure there is a significant difference in the No-Go trial scores, chi-square tests were completed comparing the post-noise exposure tests to the baseline tests. However, if tinnitus is not present in the mice, tests were done after waiting one more month, and another if needed. Mice received dosages of NMDP initially via intraperitoneal injection (i.p.). The Go and No-Go scores for the tests were compared using chi-square tests in Social Science Statistics. […]
# [8] = after feeding to rats; cited from earlier work
# [9] = anesthetized rats, cited from earlier work
compound,measurement,setting,value
"COCCOC(=O)C1=C(C)NC(C)=C(C(=O)OC(C)C)C1c1cccc([N+](=O)[O-])c1 (centres unmarked) [NMDP, nimodipine]",Water solubility,[1],12 µg/mL
same,water solubility (in words),[1],poor water solubility
same,solubility in ethanol,[1]; ethanol,freely soluble
same,No-Go scores: behavioral changes,"[2]; mice, 10, 30, and 50 mg/kg i.p.",did not cause any behavioral changes
same,No-Go trial correct rate,[2]; 30 mg/kg i.p.,~100 % correct
same,No-Go trial correct rate,[2]; 50 mg/kg i.p.,~100 % correct
same,No-Go trial correct rate,"[2]; intranasal formulation of Example 15 F1, 0.9 mg/mouse (or 30 mg/kg)",~100 % correct
same,share of NMDP reaching the brain,[3]; due to high affinity binding of plasma proteins,5%
same,Bioavailability outside of the central nervous system,[3]; intravenous administration,100%
same,Bioavailability outside of the central nervous system,"[3]; oral administration, extensive first-pass metabolism",3-30%
same,solubility,[4],≤ 6400 µg/mL
same,"pharmacokinetics, intranasal versus intravenous","[5]; Example 1: carrier, citrate buffer, benzalkonium chloride, water, about 50 mg/mL, 50 μL per nasal cavity",comparable to that of intravenously administered NMDP
same,"pharmacokinetics, intranasal versus intravenous","[5]; Example 2: carriers, non-aqueous solvent, surfactant, about 50 mg/mL, 50 μL per nasal cavity",comparable to that of intravenously administered NMDP
same,"pharmacokinetics, intranasal versus intravenous","[5]; Example 3: mPEG350, PEG400, water, no non-ionic surfactant, about 100 mg/ml, 50 μL per nasal cavity",comparable to that of intravenously administered NMDP
same,"pharmacokinetics, intranasal versus intravenous","[5]; Example 4: mPEG350, PEG400, water, ethanol, no non-ionic surfactant, about 100 mg/mL, 50 μL per nasal cavity",comparable to that of intravenously administered NMDP
same,"pharmacokinetics, intranasal versus intravenous","[5]; Example 7: six volunteer subjects with tinnitus, nasal spray of Example 5, 50 μL per nare, about 20 mg",comparable to that of intravenously administered NMDP
same,"pharmacokinetics, intranasal versus intravenous","[5]; Example 8: vesicular composition (phospholipid, C2-C4 alcohols, water), about 200 mg/mL, 50 μL per nasal cavity",comparable to that of intravenously administered NMDP
same,bioavailability,"[5]; human, plasma, inhaled or intranasal, microemulsion, single intranasal administration, 2 mg/kg, read-out: absolute bioavailability",~32%
same,time of plasma concentration peak,"[5]; microemulsion, single intranasal administration, 2 mg/kg",1 h
same,ciliotoxicity,[6],no ciliotoxicity
same,Go trial correct rate,[7]; 10 mg/kg i.p.,~100 % correct
same,Go trial correct rate,[7]; 30 mg/kg i.p.,~100 % correct
same,Go scores: effect on ability to hear the sounds presented,[7]; i.p.,did not have an effect
Phaseolus vulgaris hemagglutinin,oral bioavailability,[8],more than 10%
"human growth hormone: human growth hormone, nasal bioavailability modestly increased by N-acetyl-L-cysteine",nasal bioavailability,[9]; with N-acetyl-L-cysteine,12.2%
same,nasal bioavailability,[9]; without N-acetyl-L-cysteine,7.5%
